Experimental data as given in patent publication US9351983B2, “Use of glycerophosphoinositols for the treatment of septic shock” (CONSIGLIO NAZIONALE DELLE RICERCHE, priority 2012, dated 2016).

Key:
Type in all cases: cell-based, human
[1] = tested on: LPS-induced degradation of I-κBα; assay: Western blotting of I-κBα in LPS-stimulated monocytes; settings: 300 μM, 0.1 μg/ml LPS for 1 h
Protocol: Monocytes were incubated at 37° C. for 20 min without or with 300 μM GroPIns or GroPIns4P, and for a further 1 h in the absence and presence of 0.1 μg/ml LPS. After stimulation, the cells were lysed and expression levels of I-κBα were analysed. Proteins were resolved using 10% SDS-PAGE and were probed by Western blotting, using a polyclonal anti-I-κBα antibody. The data are representative of four experiments performed with monocytes isolated from peripheral blood of different donors.
(§1) Protein extracts were analysed by Western blotting by the following procedures. The nitrocellulose filters containing the proteins of interest were incubated in the blocking solution for Western blotting plus 3% bovine serum albumin (BSA) or 5% milk powder (Fluka, Switzerland) for 1 h at room temperature, and then with the primary antibody diluted to its working concentration (see Table 2) in the blocking solution for Western blotting (plus BSA or milk powder). After a 2-4 h incubation at room temperature, or an overnight (O/N) incubation at 4° C., the antibody was removed and the strips were washed twice in Tween®/Tris-buffered salt solution (TTBS), for 15 min each. […] After washing the strips were incubated with the enhanced luminescence (ECL) reagents (Amersham Pharmacia Biotech, NJ, USA), according to the manufacturer instructions, and protein signals were detect by autoradiography using Kodak film.

p38 = assay: Western blotting of phosphorylated p38 in LPS-stimulated monocytes; settings: 300 μM, 0.1 μg/ml LPS for 1 h
Protocol: (§2) Monocytes from healthy donors were incubated at 37° C. for 20 min without or with 300 μM GroPIns or GroPIns4P, and for an additional 1 h in the absence and presence of 0.1 μg/ml LPS from E. coli. Resentative Western blots are shown, as resolved using 10% SDS-PAGE, showing phosphorylated (p-) and total levels of p38 and ERK1/2. All of the blots were representative of at least three independent experiments.
as §1

[2] = tested on: LPS-mediated gene transcription of TNFα; assay: Real-time RT-PCR of TNFα mRNA in LPS-stimulated monocytes; settings: 300 μM, 0.1 μg/ml LPS for 1.5 h or 24 h
Protocol: (§3) FIG. 4—The glycerophosphoinositols inhibit LPS-mediated gene transcription of TNFα, IL-1β and COX-2. Human monocytes were purified from peripheral blood and incubated at 37° C. for 20 min without or with 300 μM GroPIns or GroPIns4P, and for an additional 1.5 h or 24 h in the absence and presence of 0.1 μg/ml LPS from E. coli. At each time point, RNA was extracted and converted to cDNA for real-time PCR analysis of TNFα, IL-1β and COX-2. Each sample was measured in triplicate and the data were calculated using the delta-delta method (2-DDCT). Transcription of the house-keeping gene GAPDH was used to normalise the data. Measurements of mRNA levels were expressed as fold-increase over the respective control (unstimulated) cells, and are means (±SD) of triplicates from one representative experiment of 4 experiments performed with cells from different donors. Asterisks indicate statistically significant differences (*p<0.0485; **p<0.0092).
(§4) One μg total RNA (extracted through thiocyanate/caesium chloride method) was converted to cDNA using Moloney murine leukaemia virus reverse transcriptase (Applied Biosystems, Italy). […] Each sample was measured in triplicate and the data were analysed with the SDS 2.0 software (Applied Biosystems, Italy) by the delta-delta method (2-DDCT) for comparing relative expression results. […]

[3] = tested on: LPS-induced tissue-factor gene expression; assay: Real-time RT-PCR of tissue factor mRNA in LPS-stimulated monocytes; settings: 300 μM, 0.1 μg/ml LPS for 24 h (chronic)
Protocol: FIG. 3—The glycerophosphoinositols inhibit LPS-induced tissue-factor gene expression. Freshly isolated human monocytes were incubated at 37° C. for 20 min without or with 300 μM GroPIns or GroPIns4P, and for a further 1.5 h or 24 h in the absence and presence of 0.1 μg/ml LPS. At each time point, the total RNA was extracted from cells by the thiocyanate/caesium chloride method and converted to cDNA. Real-time PCR measurements of tissue factor were performed using validated primers. GAPDH served as the house-keeping gene. Each sample was measured in triplicate and the data were calculated with the delta-delta method (2-DDCT) for comparing relative expression data. Monocytes incubated alone for different times were considered the control sample. Measurements of mRNA levels were expressed as fold-increase over control, and are means (±SD) of triplicates from one experiment that is representative of 4 experiments performed with cells from different donors (*p=0.016; **p=0.0052). […]
as §4

[4] = tested on: LPS-mediated gene transcription of IL-1β; assay: Real-time RT-PCR of IL-1β mRNA in LPS-stimulated monocytes; settings: 300 μM, 0.1 μg/ml LPS for 1.5 h or 24 h
Protocol: as §3, §4

ERK1/2 = assay: Western blotting of phosphorylated ERK1/2 in LPS-stimulated monocytes; settings: 300 μM, 0.1 μg/ml LPS for 1 h
Protocol: as §2, §1

[5] = tested on: LPS-mediated gene transcription of COX-2; assay: Real-time RT-PCR of COX-2 mRNA in LPS-stimulated monocytes; settings: 300 μM, 0.1 μg/ml LPS for 1.5 h or 24 h
Protocol: as §3, §4

| SMILES | effect on LPS-induced degradation of I-κBα [1] | phosphorylation level of p38 (p38) | effect on LPS-induced TNFα mRNA expression [2] | inhibition of LPS-induced tissue factor mRNA levels [3] | effect on LPS-induced IL-1β mRNA expression [4] | phosphorylation level of ERK1/2 (ERK1/2) | effect on LPS-induced COX-2 mRNA expression [5] |
| --- | --- | --- | --- | --- | --- | --- | --- |
| O=P(O)(O)OC1[C@@H](O)[C@H](O)C(OP(=O)(O)OCC(O)CO)[C@@H](O)[C@H]1O (some centres unmarked) [GroPIns4P, glycerophosphoinositol 4-phosphate] | did not affect this LPS activity | did not affect the phosphorylation levels | inhibited the effects of LPS on expression of all of the genes analysed | completely ineffective | inhibited the effects of LPS on expression of all of the genes analysed | did not affect the phosphorylation levels | inhibited the effects of LPS on expression of all of the genes analysed |
| O=P(O)(OCC(O)CO)OC1C(O)C(O)C(O)C(O)C1O (centres unmarked) [GroPIns, glycerophosphoinositol] | did not affect this LPS activity | did not affect the phosphorylation levels | inhibited the effects of LPS on expression of all of the genes analysed | ~60% | inhibited the effects of LPS on expression of all of the genes analysed | did not affect the phosphorylation levels | inhibited the effects of LPS on expression of all of the genes analysed |
